Assay results reported in ChEMBL document CHEMBL5728389, “Nicotinyl alcohol ether derivative, preparation method therefor, and pharmaceutical composition and uses thereof” (2021).

The compounds below were run against Programmed cell death protein 1/Programmed cell death 1 ligand 1 (Homo sapiens, UniProt Q15116+Q9NZQ7) (assay: In Vitro Activity Assay: In vitro activity evaluation: Cisbio PD-1/PD-L1 binding assay kit was applied for the detection method of in vitro enzymology level.Screening Principles and Methods of PD-1/PD-L1 Small Molecule Inhibitors1) Principle: PD-1 protein is with HIS tag, and PD-1 ligand PD-L1 is with hFc tag. Eu labeled anti-hFc antibody and XL665 labeled anti-HIS antibody are combined with the above two label proteins respectively. After laser excitation, energy can be transferred from donor Eu to receptor XL665, allowing XL665 to glow. […] Reagents should be dispensed in the following order. For 384-well white ELISA plate, 2 μl of diluent or target compound diluted with diluent was added to each well, and then 4 μl of PD-1 protein and 4 μl of PD-L1 protein were added per well, incubated for 15 min at room temperature; and 10 μl of a mixture of anti-Tag1-Eu3+ and anti-Tag2-XL665 was added per well and incubated for 1 h to 4 h at room temperature and the fluorescence signals at 665 nm and 620 nm were measured with an Envison instrument. HTRF rate=(665 nm/620 nm)*104. 8-10 concentrations were detected for each compound and IC50 was calculated by Graphpad software.).
Assay type: protein-complex assay

Sequence of Programmed cell death protein 1/Programmed cell death 1 ligand 1 (Q15116 whole entry): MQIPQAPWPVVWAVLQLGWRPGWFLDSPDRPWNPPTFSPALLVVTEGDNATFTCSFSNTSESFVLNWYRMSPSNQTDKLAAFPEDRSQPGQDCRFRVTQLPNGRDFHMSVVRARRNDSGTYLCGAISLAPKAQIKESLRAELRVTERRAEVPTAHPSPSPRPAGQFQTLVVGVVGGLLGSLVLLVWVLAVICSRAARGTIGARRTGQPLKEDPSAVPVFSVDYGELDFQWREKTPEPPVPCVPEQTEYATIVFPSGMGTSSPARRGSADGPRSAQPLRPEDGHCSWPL
Sequence of Programmed cell death protein 1/Programmed cell death 1 ligand 1 (Q9NZQ7 whole entry): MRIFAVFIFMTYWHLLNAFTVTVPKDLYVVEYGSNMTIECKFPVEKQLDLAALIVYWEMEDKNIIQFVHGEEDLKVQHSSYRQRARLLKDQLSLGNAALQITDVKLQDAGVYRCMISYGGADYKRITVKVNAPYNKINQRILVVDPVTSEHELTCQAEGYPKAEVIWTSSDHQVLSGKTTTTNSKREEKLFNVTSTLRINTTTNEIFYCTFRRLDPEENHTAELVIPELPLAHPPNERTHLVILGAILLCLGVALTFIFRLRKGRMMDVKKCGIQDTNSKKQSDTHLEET

SMILES | IC50 [µM]
OCCNCc1cc(Cl)c(OCc2cccc(-c3ccccc3)c2Br)cc1OCc1cccnc1 | 0.0538
C/C(=C\C(=O)O)NCc1cc(Cl)c(OCc2cccc(-c3ccccc3)c2Br)cc1OCc1cccnc1 | 0.00233
O=C(O)[C@H](CO)NCc1cc(Cl)c(OCc2cccc(-c3ccccc3)c2)cc1OCc1cccnc1 | 0.318
O=C(O)[C@H](CO)NCc1cc(Cl)c(OCc2cccc(-c3ccccc3)c2F)cc1OCc1cccnc1 | 0.134
C[C@H](NCc1cc(Cl)c(OCc2cccc(-c3ccccc3)c2Br)cc1OCc1cccnc1)C(=O)O | 0.00529
O=S(=O)(O)CCNCc1cc(Cl)c(OCc2cccc(-c3ccccc3)c2Br)cc1OCc1cccnc1 | 16.2
O=C(O)[C@H](CO)NCc1cc(Cl)c(OCc2cccc(-c3ccccc3)c2Cl)cc1OCc1cccnc1 | 0.0401
NC(=O)C[C@H](NCc1cc(Cl)c(OCc2cccc(-c3ccccc3)c2Br)cc1OCc1cccnc1)C(=O)O | 0.835
OCCN(CCO)Cc1cc(Cl)c(OCc2cccc(-c3ccccc3)c2Br)cc1OCc1cccnc1 | 0.051
